From patent EP4029501A1, “COMBINATION OF POLYAROMATIC UREA DERIVATIVES AND GLUCOCORTICOID OR HDAC INHIBITOR FOR THE TREATMENT OF DISEASES OR CONDITIONS ASSOCIATED WITH MUSCLE CELLS AND/OR SATELLITE CELLS” (Anagenesis Biotechnologies, priority 2021, dated 2022) come the findings set out here.

The assay has as its system muscle progenitors derived from DMD hiPSC. As to the kind of experiment: Myotube assay: total myotube area per well (alpha-actinin staining). Format: cell-based, human. To be noted: Homo sapiens, Myotube, 72 h, DMD or WT cell source not given; for Emax: efficacy, MA = normalized Myotube Area, 3 days incubation; for EC50: myogenic activity, half-maximal generation of myotubes, 10 points dose-response 1.5 nM to 30 µM, 3 days. The procedure: An in vitro assay for assessing the efficacy of compounds for use in treating, ameliorating, delaying, curing and/or preventing a disease or condition associated with muscle cells and/or satellite cells is described in example 78. Herein, the generation of myotubes and satellite cells after adding a compound to a myotube assay workflow is assessed. Said myotube assay workflow is derived from wild-type or DMD human induced pluripotent stem cells (WT hiPSC or DMD hiPSC). Before the addition of said compound, the assay comprises satellite-like cells, but no significant amount of myotubes.
The efficacy of said compound for use in treating, ameliorating, delaying, curing and/or preventing a disease or condition associated with muscle cells and/or satellite cells is positively correlated with the generation of myotubes (i.e. the increase of the area occupied by myotubes on the assay) and/or satellite cells (i.e. the increase of the number of satellite cells) in the assay after adding said compound. The generation of myotubes by the addition of said compound is expressed as the EC50 value, the concentration of said compound that corresponds with the half-maximal generation of myotubes, and the MA (normalized myotube area) value, the normalized area occupied by generated myotubes on the assay. […] Since muscle cells are formed from myotubes during myogenesis, the generation of myotubes in the assay is a good indicator of the ability of said compound to induce the formation of functional muscle cells in vivo. The number of satellite cells is measured as the percentage of Pax7 positive cells, relative to the total number of cells in the assay, as shown in Figure 3. The percentage of Pax7 is a good indicator of the ability of said compound to induce the formation of satellite cells which are able to play a role in muscle repair and regeneration in vivo.
DMD human induced pluripotent stem cells (hereafter "DMD hiPSC"), generated from the NCRM-1 hiPSC WT cell line by gene editing, or WT human induced pluripotent stem cells (hereafter "WT hiPSC"), being NCRM-1 hiPSC wt cell line, have been differentiated according to Chal et al. 2015, 2016, to produce muscle progenitors (hereafter "hMP"). The hMP population contains satellite-like cells (i.e Pax7-positive cells) and satellite cells' progenies (i.e. Myogenin-positive cells).
Figure 1 provides an example of a Myotube assay workflow. At day 0, hMP are thawed and 3.1 million cells are plated into a T75-flask coated with hESC-qualified Matrigel™ (Corning) in SkGM proliferating medium (PromoCells), supplemented with 5 µM Y-27632 (Tocris Bioscience). On day 2, SkGM proliferating medium is refreshed. On day 4, hMP are harvested and transferred into a 384-well plate coated with collagen type I at a density of 3500 cells/well in a DMEM-based medium, containing 5% of knockout serum replacement (Gibco), 1% PenStrep (Gibco), 1% MEM NEAA (Gibco) and 0.1 mM 2-mercaptoethanol (Gibco) (hereafter "K5 medium") and 5 µM Y-27632. Compounds to be tested are then added in the medium and incubated for 3 days at 37°C. On day 7, cells are fixed and immunostained. For example, myotubes (alpha-actinin staining) and satellite-like (Pax7 staining) cells can be analyzed for total myotube area per well or Pax7-positive cell quantification.
DMD hMP were put in the Myotube assay according to the workflow described in Example 2.1. In particular, compound (i) was added at concentrations ranging from 1.5 nM to 30 µM, starting from day 4. hMP were cultivated for three more days in presence of compound (i), then fixed and analyzed for quantification of total myotube area per well. Duplicates of each condition were averaged.

`CSc1cc(Oc2ccnc3nccnc23)ccc1NC(=O)Nc1cc(C(C)(C)C)nn1-c1ccccc1` [(bs), 1-(3-(tert-butyl)-1-phenyl-1 H-pyrazol-5-yl)-3-(2-(methylthio)-4-(pyrido[2,3-b]pyrazin-8-yloxy)phenyl)urea]: the Emax is at least 75% and the EC50 was at least 5 µM.

On to `CC(C)c1cc(NC(=O)Nc2ccc(Oc3ccnc4[nH]c(=O)cnc34)cc2F)n(-c2ccccc2)n1` [(b), 1-(2-fluoro-4-((3-oxo-3,4-dihydropyrido[2,3-b]pyrazin-8-yl)oxy)phenyl)-3-(3-isopropyl-1-phenyl-1 H-pyrazol-5-yl)urea], for which the Emax is 25 to 50% and the EC50 is at least 5 µM.

Turning to `CSc1cc(Oc2ccnc3c2OCC(=O)N3)ccc1NC(=O)Nc1cc(C(C)(C)C)nn1-c1ccccc1` [(ct), 1-(3-(tert-butyl)-1-phenyl-1H-pyrazol-5-yl)-3-(2-(methylthio)-4-((3-oxo-3,4-dihydro-2H-pyrido[3,2-b][1,4]oxazin-8-yl)oxy)phenyl)urea], the maximal response (Emax) is at least 75% and the EC50 was under 0.5 µM.

With `CSc1cc(Oc2ccnc3[nH]c(=O)cnc23)ccc1NC(=O)Nc1cc(C(C)(C)C)nn1-c1ccc(CN2CCOCC2)cc1` [(dd), 1-(3-(tert-butyl)-1-(4-(morpholinomethyl)phenyl)-1 H-pyrazol-5-yl)-3-(2-(methylthio)-4-((3-oxo-3,4-dihydropyrido[2,3-b]pyrazin-8-yl)oxy)phenyl)urea], the Emax is at least 75% and the EC50 is under 0.5 µM.

`CSc1cc(Oc2ccnc3[nH]c(=O)cnc23)ccc1NC(=O)Nc1cc(C(C)(C)C)nn1-c1ccccn1` [(ar), 1-(3-(tert-butyl)-1-(pyridin-2-yl)-1H-pyrazol-5-yl)-3-(2-(methylthio)-4-((3-oxo-3,4-dihydropyrido[2,3-b]pyrazin-8-yl)oxy)phenyl)urea] yielded a maximal response (Emax) of at least 75% and a half-maximal effective concentration (EC50) of at least 5 µM.

Regarding `CSc1cc(Oc2ccnc(NC(=O)CN(C)C(=O)OC(C)(C)C)c2)ccc1NC(=O)Nc1cc(C(C)(C)C)nn1-c1ccccc1` [(bp), tert-butyl (2-((4-(4-(3-(3-(tert-butyl)-1-phenyl-1H-pyrazol-5-yl)ureido)-3-(methylthio)phenoxy)pyridin-2-yl)amino)-2-oxoethyl)(methyl)carbamate], the Emax is at least 75% and the EC50 is under 0.5 µM.

The compound `CSc1cc(Oc2ccnc(NS(C)(=O)=O)c2)ccc1NC(=O)Nc1cc(C(C)(C)C)no1` [(dl), N-(4-(4-(3-(3-(tert-butyl)isoxazol-5-yl)ureido)-3-(methylthio)phenoxy)pyridin-2-yl)methanesulfonamide] showed a maximum response (Emax) of at least 75% and an EC50 of 1 to 5 µM.

`CC(C)c1cc(Oc2ccnc3[nH]c(=O)cnc23)ccc1NC(=O)Nc1cc(C(C)(C)C)nn1-c1ccccc1` [(bk), 1-(3-(tert-butyl)-1-phenyl-1H-pyrazol-5-yl)-3-(2-isopropyl-4-((3-oxo-3,4-dihydropyrido[2,3-b]pyrazin-8-yl)oxy)phenyl)urea] came in with an Emax of at least 75% and an EC50 of at least 5 µM.

`CCC(C)c1cc(NC(=O)Nc2ccc(Oc3ccnc4[nH]c(=O)cnc34)cc2F)n(-c2ccccc2)n1` (stereo not shown) [(c), 1-(3-(sec-butyl)-1-phenyl-1 H-pyrazol-5-yl)-3-(2-fluoro-4-((3-oxo-3,4-dihydropyrido[2,3-b]pyrazin-8-yl)oxy)phenyl)urea] had a maximal response (Emax) of 50 to 75% and an EC50 of at least 5 µM.

With `CSc1cc(Oc2ncnc3[nH]c(=O)cnc23)ccc1NC(=O)Nc1cc(C(C)(C)C)nn1-c1ccccc1` [(bv), 1-(3-(tert-butyl)-1-phenyl-1H-pyrazol-5-yl)-3-(2-(methylthio)-4-((7-oxo-7,8-dihydropteridin-4-yl)oxy)phenyl)urea], the Emax was at least 75% and the EC50 was at least 5 µM.

In turn, `CSc1cc(Oc2ccnc(NC(C)=O)c2)ccc1NC(=O)Nc1cc(C(C)(C)C)nn1-c1ccccc1` [(aq), N-(4-(4-(3-(3-(tert-butyl)-1-phenyl-1H-pyrazol-5-yl)ureido)-3-(methylthio)phenoxy)pyridin-2-yl)acetamide] yielded an Emax of at least 75% and an EC50 of 0.5 to 1 µM.

Usually Emax stands for the greatest response seen or fitted, relative to the assay's reference. By EC50 is commonly meant the concentration needed to bring the measured effect to its halfway point. Read a high EC50 as a less potent agent.
